The term EC50 denotes the concentration that produces a half-maximal response.

We go through five compounds from US12139520B2 (priority 2020, dated 2024).

Data set [1] addresses T1, hAMY3 receptor (Homo sapiens, UniProt O60896+P30988).
T1 sequence (P30988 25-474): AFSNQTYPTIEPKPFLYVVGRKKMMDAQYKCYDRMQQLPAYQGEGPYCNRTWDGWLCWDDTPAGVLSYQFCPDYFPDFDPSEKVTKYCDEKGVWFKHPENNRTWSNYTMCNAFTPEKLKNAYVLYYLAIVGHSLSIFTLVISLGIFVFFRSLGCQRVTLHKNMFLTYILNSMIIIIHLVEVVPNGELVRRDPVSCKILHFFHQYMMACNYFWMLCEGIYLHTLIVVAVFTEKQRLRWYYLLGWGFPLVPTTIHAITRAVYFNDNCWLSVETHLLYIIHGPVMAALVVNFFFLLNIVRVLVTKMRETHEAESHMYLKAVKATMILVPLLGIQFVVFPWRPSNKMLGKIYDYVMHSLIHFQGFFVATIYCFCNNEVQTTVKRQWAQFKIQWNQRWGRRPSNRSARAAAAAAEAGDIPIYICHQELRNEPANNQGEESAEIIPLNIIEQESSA
T1 sequence (O60896 24-148 partner): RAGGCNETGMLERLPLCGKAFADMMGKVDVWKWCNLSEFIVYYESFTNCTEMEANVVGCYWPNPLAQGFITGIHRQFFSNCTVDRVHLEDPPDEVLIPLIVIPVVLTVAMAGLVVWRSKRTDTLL
Kind of data set: cAMP assay for in vitro receptor activation, hAMY3-R. The class given is cell-based. As to conditions: cAMP assay, hAMY3 receptor; read-out: hAMY3R EC50. A digest of the protocol: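 Thawed cells from a sub-cloned monoclonal hAMY3-overexpressing line are plated in DPBS containing 0.05% casein and 0.5 mM IBMX. Test compounds are added immediately at graded doses for 30 min at room temperature. Reagents for cAMP detection are then added, and TR-FRET is recorded after one hour.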
In general terms: cAMP levels reflect the balance of adenylyl cyclase and phosphodiesterase activity.

Data set [2] is described as follows: Physical stability of peptide analogues (Thioflavin T fibrillation). It is filed as physicochemical. The following applies: maximum ThT signal normalized between hAMY maximum and buffer background; 40° C., shaking, four days; pH 7 per table title. The procedure, abridged: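 ThT fluorescence (450 nm excitation, 480 nm emission; 4 μM dye) was read every 10 min over four days at 40° C under 700 rpm shaking stress, after 1 h in pH 4 acetate or pH 7 phosphate (50 mM). Peak smoothed signal expressed as percent, scaled between buffer background and hAMY maximum.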

Molecules are shown by their SMILES. Bridge positions count the residues as written; N and C are the ends. Peptide text beside a SMILES is read from it.

As to `CC[C@H](C)[C@H](NC(=O)[C@H](CCC(N)=O)NC(=O)[C@H](Cc1c[nH]cn1)NC(=O)[C@H](C)NC(=O)[C@H](CC(C)C)NC(=O)[C@H](CCCNC(=N)N)NC(=O)[C@H](CCC(N)=O)NC(=O)[C@@H](NC(=O)[C@@H](NC(=O)[C@@H]1CSSC[C@H](NC(=O)CN)C(=O)N[C@@H](CCCNC(=N)N)C(=O)N[C@@H](Cc2ccccc2)C(=O)NCC(=O)N[C@@H]([C@@H](C)O)C(=O)N1)[C@@H](C)O)C(C)C)C(=O)N[C@@H](Cc1ccc(O)cc1)C(=O)N[C@@H](CCC(N)=O)C(=O)N[C@@H](Cc1ccccc1)C(=O)N[C@H](C(=O)N[C@@H](CC(=O)O)C(=O)N[C@@H](CCCCN)C(=O)N[C@@H](CC(=O)O)C(=O)N[C@@H](CCCCN)C(=O)N[C@@H](CC(=O)O)C(=O)N[C@@H](CC(N)=O)C(=O)N[C@H](C(=O)N[C@@H](C)C(=O)N1CCC[C@H]1C(=O)N[C@@H](CCCNC(=N)N)C(=O)N[C@H](C(=O)N[C@@H](CC(N)=O)C(=O)N[C@H](C(=O)NCC(=O)N1CCC[C@H]1C(=O)N[C@@H](CCC(N)=O)C(=O)NCC(=O)N[C@@H](Cc1ccc(O)cc1)C(N)=O)C(C)C)[C@@H](C)O)C(C)C)[C@@H](C)O` [compound 362] (H-GCRFGTCTVQRLAHQIYQFTDKDKDNVAPRTNVGPQGY-NH2; disulfide 2-7), the EC50 in data set [1] is 0.007 nM. Besides, the “Max ThT signal (%)” value in data set [2] stood at 8.900%.
As to `CC[C@H](C)[C@H](NC(=O)[C@H](CCC(N)=O)NC(=O)[C@H](Cc1c[nH]cn1)NC(=O)[C@H](C)NC(=O)[C@H](CC(C)C)NC(=O)[C@H](CCCNC(=N)N)NC(=O)[C@H](CCC(N)=O)NC(=O)[C@@H](NC(=O)[C@@H](NC(=O)[C@@H]1CSSC[C@H](NC(=O)CN)C(=O)N[C@@H](CCCNC(=N)N)C(=O)N[C@@H](Cc2ccccc2)C(=O)NCC(=O)N[C@@H]([C@@H](C)O)C(=O)N1)[C@@H](C)O)C(C)C)C(=O)N[C@@H](Cc1ccc(O)cc1)C(=O)N[C@@H](CCC(N)=O)C(=O)N[C@@H](Cc1ccccc1)C(=O)N[C@H](C(=O)N[C@@H](CC(=O)O)C(=O)N[C@@H](CCCCN)C(=O)N[C@@H](CC(=O)O)C(=O)N[C@@H](CCCCN)C(=O)N[C@@H](CC(=O)O)C(=O)N[C@@H](CC(N)=O)C(=O)N[C@H](C(=O)N[C@@H](C)C(=O)N1CCC[C@H]1C(=O)N[C@@H](CCCNC(=N)N)C(=O)N[C@H](C(=O)N[C@@H](CC(N)=O)C(=O)N[C@H](C(=O)N[C@@H](CO)C(=O)N1CCC[C@H]1C(=O)N[C@@H](CC(N)=O)C(=O)NCC(=O)N[C@@H](Cc1ccc(O)cc1)C(N)=O)[C@@H](C)CC)[C@@H](C)O)C(C)C)[C@@H](C)O` [compound 366] (H-GCRFGTCTVQRLAHQIYQFTDKDKDNVAPRTNISPNGY-NH2; disulfide 2-7; N-terminus assumed), the EC50 in data set [1] worked out at 0.013 nM. Besides, in data set [2], the “Max ThT signal (%)” value amounted to 3.300%.
The corresponding values for `CC[C@H](C)[C@H](NC(=O)[C@H](CCC(N)=O)NC(=O)[C@H](Cc1c[nH]cn1)NC(=O)[C@H](C)NC(=O)[C@H](CC(C)C)NC(=O)[C@H](CCCNC(=N)N)NC(=O)[C@H](CCC(N)=O)NC(=O)[C@@H](NC(=O)[C@@H](NC(=O)[C@@H]1CSSC[C@H](NC(=O)CN)C(=O)N[C@@H](CCCNC(=N)N)C(=O)N[C@@H](Cc2ccccc2)C(=O)NCC(=O)N[C@@H]([C@@H](C)O)C(=O)N1)[C@@H](C)O)C(C)C)C(=O)N[C@@H](Cc1ccc(O)cc1)C(=O)N[C@@H](CCC(N)=O)C(=O)N[C@@H](Cc1ccccc1)C(=O)N[C@H](C(=O)N[C@@H](CC(=O)O)C(=O)N[C@@H](CCCCN)C(=O)N[C@@H](CC(=O)O)C(=O)N[C@@H](CCCCN)C(=O)N[C@@H](CC(=O)O)C(=O)N[C@@H](CC(N)=O)C(=O)N[C@H](C(=O)N[C@@H](C)C(=O)N1CCC[C@H]1C(=O)N[C@@H](CCCNC(=N)N)C(=O)N[C@@H](CO)C(=O)N[C@@H](CC(N)=O)C(=O)N[C@H](C(=O)NCC(=O)N1CCC[C@H]1C(=O)N[C@@H](CC(N)=O)C(=O)NCC(=O)N[C@@H](Cc1ccc(O)cc1)C(N)=O)C(C)C)C(C)C)[C@@H](C)O` [compound 373] (H-GCRFGTCTVQRLAHQIYQFTDKDKDNVAPRSNVGPNGY-NH2; disulfide 2-7; N-terminus assumed) are 0.02 nM and 18.000%.
With `CC[C@H](C)[C@H](NC(=O)[C@H](CCC(N)=O)NC(=O)[C@H](Cc1c[nH]cn1)NC(=O)[C@H](C)NC(=O)[C@H](CC(C)C)NC(=O)[C@H](CCCNC(=N)N)NC(=O)[C@H](CCC(N)=O)NC(=O)[C@@H](NC(=O)[C@@H](NC(=O)[C@@H]1CSSC[C@H](NC(=O)CN)C(=O)N[C@@H](CCCNC(=N)N)C(=O)N[C@@H](Cc2ccccc2)C(=O)NCC(=O)N[C@@H]([C@@H](C)O)C(=O)N1)[C@@H](C)O)C(C)C)C(=O)N[C@@H](Cc1ccc(O)cc1)C(=O)N[C@@H](CCC(N)=O)C(=O)N[C@@H](Cc1ccccc1)C(=O)N[C@H](C(=O)N[C@@H](CC(=O)O)C(=O)N[C@@H](CCCCN)C(=O)N[C@@H](CC(=O)O)C(=O)N[C@@H](CCCCN)C(=O)N[C@@H](CC(=O)O)C(=O)N[C@@H](CC(N)=O)C(=O)N[C@H](C(=O)N[C@@H](C)C(=O)N1CCC[C@H]1C(=O)N[C@@H](CCCNC(=N)N)C(=O)N[C@H](C(=O)N[C@@H](CCCCN)C(=O)N[C@H](C(=O)N[C@@H](CO)C(=O)N1CCC[C@H]1C(=O)N[C@@H](CC(N)=O)C(=O)NCC(=O)N[C@@H](Cc1ccc(O)cc1)C(N)=O)C(C)C)[C@@H](C)O)C(C)C)[C@@H](C)O` [compound 385] (H-GCRFGTCTVQRLAHQIYQFTDKDKDNVAPRTKVSPNGY-NH2; disulfide 2-7; N-terminus assumed), the EC50 in data set [1] was found to be 0.036 nM. Besides, the “Max ThT signal (%)” value in data set [2] was determined as 8.800%.
For the compound `CC[C@H](C)[C@H](NC(=O)[C@H](CCCCN)NC(=O)[C@H](CO)NC(=O)[C@H](CCCNC(=N)N)NC(=O)[C@@H]1CCCN1C(=O)[C@H](C)NC(=O)[C@@H](NC(=O)[C@H](CC(N)=O)NC(=O)[C@H](CC(=O)O)NC(=O)[C@H](CCCCN)NC(=O)[C@H](CC(=O)O)NC(=O)[C@H](CCCCN)NC(=O)[C@H](CC(=O)O)NC(=O)[C@@H](NC(=O)[C@H](Cc1ccccc1)NC(=O)[C@H](CCC(N)=O)NC(=O)[C@H](Cc1ccc(O)cc1)NC(=O)[C@@H](NC(=O)[C@H](CCC(N)=O)NC(=O)[C@H](Cc1c[nH]cn1)NC(=O)[C@H](C)NC(=O)[C@H](CC(C)C)NC(=O)[C@H](CCCNC(=N)N)NC(=O)[C@H](CCC(N)=O)NC(=O)[C@@H](NC(=O)[C@@H](NC(=O)[C@@H]1CSSC[C@H](NC(=O)CN)C(=O)N[C@@H](CCCNC(=N)N)C(=O)N[C@@H](Cc2ccccc2)C(=O)NCC(=O)N[C@@H]([C@@H](C)O)C(=O)N1)[C@@H](C)O)C(C)C)[C@@H](C)CC)[C@@H](C)O)C(C)C)C(=O)NCC(=O)N1CCC[C@H]1C(=O)N[C@@H](CCC(N)=O)C(=O)NCC(=O)N[C@@H](Cc1ccc(O)cc1)C(N)=O` [compound 387] (H-GCRFGTCTVQRLAHQIYQFTDKDKDNVAPRSKIGPQGY-NH2; disulfide 2-7; N-terminus assumed), the EC50 in data set [1] was 0.04 nM. For the same compound, the “Max ThT signal (%)” value in data set [2] was found to be 14.300%.
